Data from article PMC7179167 (Molecules, 2020).
Read-outs that look alike come from different tables or passages of the source. One block for each compound: values may come before it.

Columns and labels:
B. subtilis (ATCC 6633) = experiment: Disk diffusion antimicrobial test, B. subtilis; format: cell-based, Bacillus subtilis; details: Bacillus subtilis, ATCC6633, Gram-positive, 20 mg per disc (title), concentration 20 µg (footnote)
Experimental: (§1) The newly synthesized compounds were chosen to be evaluated in vitro towards a variety of pathogenic microorganisms; Gram-positive bacteria: S. aureus (ATCC 6538) and B. subtilis (ATCC 6633); Gram-negative bacteria: P. areuginosa (ATCC 27853) and E. coli (DSMZ 1058); yeast: C. albicans (ATCC 10231) and S. cerevisiae (ATCC 9080) and fungi: A. niger (NRRL A-326) using the disk diffusion method at a single dose of 20 µl. The results are shown in Table 1 as the growth inhibition zone (mm).
(§2) The antimicrobial activity of target compounds were evaluated to be in vitro against a variety of pathogenic microorganisms, namely Staphylococcus aureus (ATCC 6538), Bacillus subtilis (ATCC 6633) (Gram-positive bacteria), Pseudomonas areuginosa (ATCC 27853), Escherichia coli (DSMZ 1058) (Gram-negative bacteria), Candida albicans (ATCC 10231), Saccharomyces cerevisiae (ATCC 9080) (Yeast) and Aspergillus niger (NRRL A-326) (Fungi) using the disk diffusion method at a single dose of 20 µg. The microorganisms were served and obtained from the Microbial Biotechnology Department, National Research Center, Giza, Egypt. Amphotericin, amoxicillin and ciprofloxacin were used as reference drugs (Oxoid™ Disks). The tested compounds 11a–c, 12a–c, 13a–i, 14a–i and 15a,b were dissolved in dimethylsulphoxide (DMSO) at a concentration of 1 mg/mL. Aliquots of 20 μl were soaked on filter paper discs (6 mm) and dried at room temperature under sterilized conditions. The paper discs were placed on inoculated agar plats and then incubated for 24 h at 37 °C for bacterial strains and after 48–72 h incubation at 30 °C for fungi. Both bacterial and yeast strains were grown on nutrient agar medium (g/l): beef extract, 3; peptone, 10 and agar, 20 at pH of 7.2. The fungal strain was grown on Czapek-Dox medium (g/l): sucrose, 30; NaNO3, 3; MgSO4.7H2O, 0.5l; KCl, 0.5; FeSO4, 0.01; K2HPO4, 1 and agar, 20 at pH of 6.0.

A. niger (NRRL A-326) = experiment: Disk diffusion antimicrobial test, A. niger; format: cell-based; details: Aspergillus niger, fungi, 20 mg per disc (title), concentration 20 µg (footnote)
Experimental: as §1, §2

C. albicans (ATCC 10231) = experiment: Disk diffusion antimicrobial test, C. albicans; format: cell-based, Candida albicans; details: Candida albicans, ATCC10231, disk diffusion; yeast; 20 mg per disc (title), concentration 20 µg (footnote)
Experimental: as §1, §2

[1] = DPPH free radical scavenging assay; format: biochemical; details: concentration of 20µg/l, mean ± SD of three experiments
In short: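 Compound DMSO stock (1 mg/mL) added to fresh DPPH in DMSO (20 mg/L), vortexed 1 min, kept dark for 15–60 min. Absorbance at 517 nm; % scavenging = (A control − A sample)/A control × 100; triplicates averaged. Ascorbic acid served as reference.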

S. aureus (ATCC 6538) = experiment: Disk diffusion antimicrobial test, S. aureus; format: cell-based, Staphylococcus aureus; details: Staphylococcus aureus, ATCC6538, Gram-positive, 20 mg per disc (title), concentration 20 µg (footnote)
Experimental: as §1, §2

[2] = test system: P. aeruginosa (ATCC 27853); experiment: Disk diffusion antimicrobial test, P. aeruginosa; format: cell-based, Pseudomonas areuginosa; details: Pseudomonas aeruginosa, ATCC27853, Gram-negative, 20 mg per disc (title), concentration 20 µg (footnote)
Experimental: as §1, §2

E. coli (DSMZ 1058) = experiment: Disk diffusion antimicrobial test, E. coli; format: cell-based; details: Escherichia coli, DSMZ1058, Gram-negative, 20 mg per disc (title), concentration 20 µg (footnote)
Experimental: as §1
The antimicrobial activity of target compounds were evaluated to be in vitro against a variety of pathogenic microorganisms, namely Staphylococcus aureus (ATCC 6538), Bacillus subtilis (ATCC 6633) (Gram-positive bacteria), Pseudomonas areuginosa (ATCC 27853), Escherichia coli (DSMZ 1058) (Gram-negative bacteria), Candida albicans (ATCC 10231), Saccharomyces cerevisiae (ATCC 9080) (Yeast) and Aspergillus niger (NRRL A-326) (Fungi) using the disk diffusion method at a single dose of 20 µg. The microorganisms were served and obtained from the Microbial Biotechnology Department, National Research Center, Giza, Egypt. Amphotericin, amoxicillin and ciprofloxacin were used as reference drugs (Oxoid™ Disks). The tested compounds 11a–c, 12a–c, 13a–i, 14a–i and 15a,b were dissolved in dimethylsulphoxide (DMSO) at a concentration of 1 mg/mL. […]

melting point: 217 to 219 °C
SMILES: COc1c(-c2cnc3ccccc3c2C(=O)O)c(O)cc2occc12 [Compound 15a, 3-(6-Hydroxy-4-methoxybenzofuran-5-yl)quinoline-4-carboxylic acid]
zone of inhibition at 20 µg/disc (B. subtilis (ATCC 6633)): 16 mm
zone of inhibition at 20 µg/disc (A. niger (NRRL A-326)): 10 mm
zone of inhibition at 20 µg/disc (C. albicans (ATCC 10231)): 12 mm
inhibition ([1]; 15 min, read-out: Scavenging Activity (%) on DPPH radicals at 15 min): 9.36 ± 1.25%
inhibition ([1]; 30 min, read-out: Scavenging Activity (%) on DPPH radicals at 30 min): 14.2 ± 1.61%
inhibition ([1]; 45 min, read-out: Scavenging Activity (%) on DPPH radicals at 45 min): 20.4 ± 1.92%
inhibition ([1]; 60 min, read-out: Scavenging Activity (%) on DPPH radicals at 60 min): 24.8 ± 2.05%
zone of inhibition at 20 µg/disc (S. aureus (ATCC 6538)): 8 mm
zone of inhibition at 20 µg/disc [2]: 24 mm

SMILES: O=C(O)c1cn(C2CC2)c2cc(N3CCNCC3)c(F)cc2c1=O [Ciprofloxacin, ciprofloxacin, reference compound]
zone of inhibition at 20 µg/disc (E. coli (DSMZ 1058)): 25.8 mm
zone of inhibition at 20 µg/disc [2]: 30.2 mm
